Series [1] concerns L1210 murine leukemia cell line. The series can be described thus: In vitro cytotoxic activity (cell growth inhibition), L1210. Format: cell-based. Here is the method:
In Vitro Cytotoxic Activity. Both (+)- and ent-(−)-6 and their N-Boc precursors 16 were tested for cell growth inhibition in a cytotoxic assay with the L1210 murine leukemia cell line.

The test system of series [2] is L1210 murine leukemia cells implanted ip. The series can be described thus: In vivo antitumor activity (L1210, ip). The settings on record: for Surviving Mice: live animals after 250 days. As for the experimental part: Therefore, the in vivo antitumor activity of (+)-6 was assessed alongside seco-CBI-indole2 (4) in an antitumor model consisting of L1210 murine leukemia cells implanted ip into […] which has been used historically as an initial antitumor model for comparisons in this class.^11,12,14,15 A dose range of 300 to 9000 μg/kg for prodrug (+)-6 (scaled to its in vitro cytotoxic activity IC50) and 60 to 500 μg/kg for seco-CBI-indole2 (4) and a dosing schedule (administered three times ip on days 1, 5, and 9) for both compounds was employed.
B6D2F1 mice were injected intraperitoneal (i.p.) with syngeneic L1210 cells (1×10^6) on day 0. Ten mice were randomly assigned to control vehicle or treatment groups for compounds (+)-4 and (+)-6 at doses of 60, 100, 250, and 500 μg/kg/inj for (+)-4 or 300, 1000, 3000, and 9000 μg/kg/inj for (+)-6. Compounds (+)-4 and (+)-6 were formulated in 100% DMSO, and injected i.p. on study days 1, 5, and 9. Following injection of tumor cells, animals were monitored daily and weighed two times per week. Percent survival (T/C) for treated and control groups were determined by dividing the total survival days for each treatment group by the total survival days for the control group and multiplying ×100. All animal studies were carried out in the animal facilities of The University of Kansas Medical Center with strict adherence to the guidelines of the IACUC Animal Welfare Committee of KUMC (IACUC approval #2009-1837).

Series [3] shares this test system. The settings on record: previously established; cited from earlier work.
Series [4] is described as follows: Chemical reactivity of N-Boc-prodrug 16 under acidic, basic and nucleophilic conditions. Format: physicochemical. As for the experimental part: In order to determine the ability of the free drug to be released under physiological conditions, the chemical reactivity of N-Boc-prodrug 16 was assessed under a variety of acidic, basic, and nucleophilic conditions.

Another series can be described thus: Solvolysis of 21. Format: physicochemical. The note with it: 25° C., UV 255 nm; for half-life: CH3OH / aqueous citrate-phosphate buffer, read-out: solvolysis t1/2 (converted); for solvolysis rate constant k: CH3OH. Here is the method: Compound 21 was dissolved in CH3OH (1.5 mL). […] After mixing, the solvolysis solutions were stoppered and kept at 25° C. in the dark. The UV spectrum of the solutions was measured 3-4 times in the first two days and once a day for 2-4 weeks. The UV monitoring was continued until no further change was detectable. The long-wavelength absorption at 380 nm and short-wavelength absorption at 255 nm were monitored. The solvolysis rate constant and half-life were calculated from the data recorded at the short wavelength (255 nm) from the least square treatment of the slopes of plots of time versus ln [(AFinal−Ainitial)/(Afinal−A)].

The conditions of series [5]: calf serum; cited from earlier work.
In series [6] the test system is L1210 murine leukemia cell line. The note with it: L1210, natural enantiomer, literature ref 9; cited from earlier work.
For series [7] the following is noted: human, plasma; cited from earlier work.
[8] abbreviates: Mus musculus, L1210, read-out: IC50 L1210 natural, natural enantiomer, Table 2.
The mark [9] stands for this setting: Mus musculus, L1210, read-out: IC50 L1210 unnatural, unnatural enantiomer, Table 2.
[10] abbreviates: Mus musculus, L1210, read-out: In vitro IC50 L1210 natural, natural (S)-enantiomer, Table 4.
Setting [11] is: Mus musculus, L1210, read-out: In vitro IC50 L1210 unnatural, unnatural (R)-enantiomer, Table 4.
Setting [12] is: 60 μg/kg i.p. on days 1, 5, and 9.
The mark [13] stands for this setting: 100 μg/kg i.p. on days 1, 5, and 9.
The mark [14] stands for this setting: 250 μg/kg i.p. on days 1, 5, and 9.
Where [15] appears, read: 500 μg/kg i.p. on days 1, 5, and 9.
Setting [16] is: pH 1 buffer (: 0.2 M Na2HPO4: H2O 4:1:20).
Setting [17] is: pH 2 buffer (1.0 M citric acid: 0.2 M Na2HPO4: H2O 4:1:20).
[18] abbreviates: natural (S)-enantiomer, Table 4.

Data on 12 molecules can be found in patent publication US9139596B2, “Cyclic prodrugs of duocarmycin analogs” (The Scripps Research Institute, priority 2012, dated 2015).

By IC50 is commonly meant the point on the concentration scale where inhibition reaches its midpoint.

Read-outs that look alike come from different tables or passages of the source. Bounds are passed on as bounds.

On to `COC(=O)c1cc2c([nH]1)C(=O)C=C1N(C(=O)c3cc4cc(OC)c(OC)c(OC)c4[nH]3)CC3CC123` (stereo not drawn) [Compound 1, Duocarmycin SA, reference compound], for which the concentration for half-maximal inhibition (IC50) in series [1] (setting [8]) was 0.01 nM; in series [1] (setting [9]), 0.1 nM; in series [1] (setting [10]) it was 0.01 nM; in series [1] (setting [11]), 0.1 nM.
For `COc1c(O)c2c(c3cc(C(=O)N4CCc5c4c(O)c(OC)c4[nH]c(C(=O)N6CC7CC78C6=CC(=O)c6[nH]cc(C)c68)cc54)[nH]c13)CCN2C(N)=O` (stereo not drawn) [Compound 2, CC-1065, reference compound], the IC50 amounted to 0.02 nM in series [1] (Mus musculus, L1210, natural (S)-enantiomer, Table 4, read-out: In vitro IC50 L1210 natural); 0.02 nM in series [1] (Mus musculus, L1210, natural enantiomer, Table 2, read-out: IC50 L1210 natural); 0.02 nM in series [1] (Mus musculus, L1210, unnatural (R)-enantiomer, Table 4, read-out: In vitro IC50 L1210 unnatural); 0.02 nM in series [1] (Mus musculus, L1210, unnatural enantiomer, Table 2, read-out: IC50 L1210 unnatural).
Turning to `O=C(Nc1ccc2[nH]c(C(=O)N3C[C@@H](CCl)c4c3cc(O)c3ccccc43)cc2c1)c1cc2ccccc2[nH]1` [Compound 4, seco-CBI-indole2, reference compound], the IC50 in series [1] (L1210, free drug, natural enantiomer, read-out: IC50) came out at 0.03 nM; in series [1] (natural (S)-enantiomer, Table 4, read-out: In vitro IC50 L1210 natural), 0.03 nM; in series [1] (natural enantiomer, Table 2, read-out: IC50 L1210 natural) it was 0.03 nM; in series [1] (unnatural (R)-enantiomer, Table 4, read-out: In vitro IC50 L1210 unnatural) it was 0.9 nM; in series [1] (unnatural enantiomer, Table 2, read-out: IC50 L1210 unnatural), 0.9 nM. Further, the “MSP (Mean Survival Period)” value in series [2] (setting [12]) is listed as >34.7 days; in series [2] (setting [13]), 6.4 days; in series [2] (setting [14]), 3.7 days; in series [2] (setting [15]), 3.0 days. Moreover, the “T/C (Treated/Control MSP x 100)” value in series [2] (setting [12]) was >197; in series [2] (setting [13]) it was 36; in series [2] (setting [14]), 21; in series [2] (setting [15]), 17. Also, the “Surviving Mice” value in series [2] (setting [12]) is listed as 1/10; in series [2] (setting [13]), 0/10; in series [2] (setting [14]), 0/10; in series [2] (setting [15]), 0/10. The “toxicity leading to premature death of the animals” value in series [2] (doses of 100-500 μg/kg i.p. on days 1, 5, and 9) was “toxic”. Further, in series [3], the optimal dose range was 0.06 to 0.1 mg/kg.
Consider `CC(C)(C)OC(=O)N1C[C@@H](CCl)c2c1cc1c3c(cccc23)NC(=O)O1` [Compound 16, tert-Butyl 10-(Chloromethyl)-5-oxo-9,10-dihydro-4H-pyrrolo[3′,2′:5,6]naphtho[1,8-de][1,3]oxazine-8(5H)-carboxylate], for which the “fold less active than N-Boc-CBI” value in series [1] (L1210) is 50-100 fold. Also, the IC50 in series [1] (setting [8]) was 4900 nM; in series [1] (setting [9]), 5800 nM. Moreover, in series [4] (1:1 TFA:CH2Cl2, 4 N HCl in EtOAc, 48 h at 23° C., Boc group cleaved), the “stability of the cyclic carbamate to hydrolysis under acidic conditions” value is “stable”. Also, the “stability to BnNH2” value in series [4] (BnNH2 (100 equiv) in MeOH, 24 h) is given as “rapidly cleaved”; in series [4] (BnNH2 in THF), “stable”. Also, the “stability in the presence of nucleophiles BnSH and BnOH” value in series [4] (BnSH and BnOH (100 equiv) in MeOH and THF at 23° C. for 48 h) is reported as “completely stable”.
On to `Nc1cccc2c1C(=O)C=C1N(C(=O)c3cc4cc(NC(=O)c5cc6ccccc6[nH]5)ccc4[nH]3)CC3CC123` (stereo not drawn) [Compound 20, N-(2-(5-Amino-4-oxo-1,2,9,9a-tetrahydrocyclopropa[c]benzo[e]indole-2-carbonyl)-1H-indol-5-yl)-1H-indole-2-carboxamide], for which the “fold less active than 4 (active enantiomer)” value in series [1] (L1210, inferred from the racemate IC50) is on record as 3-4 fold. Also, in series [1] (L1210, racemic parent drug, read-out: IC50), the IC50 was found to be 0.21 nM.
As to `CC(C)(C)OC(=O)N1CC2CC23C1=CC(=O)c1c(N)cccc13` (stereo not drawn) [Compound 21, N-tert-Butyloxycarbonyl-5-amino-1,2,9,9a-tetrahydrocyclopropa[c]benzo[e]indole-4-one], the half-life was 8.52 h in “Solvolysis of 21” (setting [16]) and 40.3 h in the series “Solvolysis of 21” (setting [17]). Further, the “solvolysis rate constant k” value in “Solvolysis of 21” (setting [16]) worked out at 1.5e-05 s⁻¹; in “Solvolysis of 21” (setting [17]), 5e-06 s⁻¹.
As to `N=C1Nc2cccc3c4c(cc(c23)O1)N(C(=O)c1cc2cc(NC(=O)c3cc5ccccc5[nH]3)ccc2[nH]1)C[C@H]4CCl` [Compound 24, (S)—N-(2-(10-(chloromethyl)-5-imino-5,8,9,10-tetrahydro-4H-pyrrolo[3′,2′,5,6]naphtho[1,8-de][1,3]oxazine-8-carbonyl)-1H-indol-5-yl)-1H-indole-2-carboxamide], the figures for the IC50 in series [1] (setting [10]) and in series [1] (setting [11]) were 0.5 nM and 64 nM, respectively. In series [1] (setting [18]), the “In vitro IC50 L1210 natural” value is “in the nanomolar range”.
As for `O=C(Nc1ccc2[nH]c(C(=O)N3C[C@@H](CCl)c4c3cc3c5c(cccc45)NC(=S)O3)cc2c1)c1cc2ccccc2[nH]1` [Compound 25, (S)—N-(2-(10-(chloromethyl)-5-thioxo-5,8,9,10-tetrahydro-4H-pyrrolo[3′,2′,5,6]naphtho[1,8-de][1,3]oxazine-8-carbonyl)-1H-indol-5-yl)-1H-indole-2-carboxamide], the figures for the half-inhibitory concentration (IC50) in series [1] (setting [10]) and in series [1] (setting [11]) were 0.29 nM and 62 nM, respectively. In addition, the “In vitro IC50 L1210 natural” value in series [1] (setting [18]) is reported as “in the nanomolar range”.
As to `O=C(Nc1ccc2[nH]c(C(=O)N3C[C@@H](CCl)c4c3cc3c5c(cccc45)N=C(SCCN4C(=O)c5ccccc5C4=O)O3)cc2c1)c1cc2ccccc2[nH]1` [Compound 29, (S)—N-(2-(10-(chloromethyl)-5-((2-(1,3-dioxoisoindolin-2-yl)ethyl)thio)-9,10-dihydro-8H-pyrrolo[3′,2′:5,6]naphtho[1,8-de][1,3]oxazine-8-carbonyl)-1H-indol-5-yl)-1H-indole-2-carboxamide], the IC50 in series [1] (setting [10]) is < 100 nM; in series [1] (read-out: In vitro IC50 L1210 natural, natural (S)-enantiomer, Table 4), 83.6 nM.
For `COC(=O)c1c(C)[nH]c2c(OC(=O)N3CCN(C)CC3)cc3c(c12)[C@H](CBr)CN3C(=O)c1cc2cc(OC)c(OC)c(OC)c2[nH]1` [KW-2189], in series [5], the t1/2 is 20 h.
Regarding `CC(C)(C)OC(=O)N1CC2CC23C1=CC(=O)c1ccccc13` (stereo not drawn) [N-Boc-CBI], the half-maximal inhibitory concentration (IC50) in series [6] was 80 nM.
On to `CCN(CC)c1ccc2cc(C(=O)Nc3ccc4[nH]c(C(=O)N5C[C@@H](CCl)c6c5cc(OC(=O)Nc5ccccc5)c5[nH]cc(C)c65)cc4c3)oc2c1` [carzelesin], for which the t1/2 in series [7] was < 1 h.
